Results: patent US20220323406A1, “METHODS AND COMPOSITIONS FOR DIFFERENTIATING STEM CELLS” (Massachusetts Institute of Technology, priority 2019, published 2022)
Counter-ions that a name gives are not always drawn.

Legend:
ENR+CD organoids = test: Primary screen: ATP (CellTiter-Glo 3D, CTG) cell number/viability, 2.5-D 384-well ENR+CD organoids; conditions: primary screen;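 note: compounds given at plating and again on day 3 over a 6-day differentiation from ENR+CV stem-cell-enriched precursors, ATP measured on day 6, plate median as control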
[1] = test system: ENR+CD organoids (ISC to Paneth cell differentiation); test: Primary screen: basal (non-stimulated) lysozyme secretion LYZ.NS, 2.5-D 384-well ENR+CD organoid differentiation; assay type: cell-based, mouse
From the text: (§1) High-throughput screening.

[2] = test system: ENR+CD organoids (ISC to Paneth cell differentiation); test: Primary screen: CCh-stimulated lysozyme secretion LYZ.S, 2.5-D 384-well ENR+CD organoid differentiation; assay type: cell-based, mouse; conditions: primary screen
From the text: as §1

[3] = dose 0.08 uM, FC vs plate median
[4] = dose 0.40 uM, FC vs plate median
[5] = dose 2.00 uM, FC vs plate median
[6] = dose 10.00 uM, FC vs plate median
[7] = primary screen, dose 0.08 uM, standard z score
[8] = primary screen, dose 0.40 uM, standard z score
[9] = primary screen, dose 2.00 uM, standard z score
[10] = primary screen, dose 10.00 uM, standard z score
[11] = primary screen; dose 0.08 uM; FC vs plate median
[12] = primary screen; dose 0.40 uM; FC vs plate median
[13] = primary screen; dose 2.00 uM; FC vs plate median
[14] = primary screen; dose 10.00 uM; FC vs plate median

| Structure (SMILES) | Dose.FC.CTG (ENR+CD organoids; [3]) [log2 fold change] | Dose.FC.CTG (ENR+CD organoids; [4]) [log2 fold change] | Dose.FC.CTG (ENR+CD organoids; [5]) [log2 fold change] | Dose.FC.CTG (ENR+CD organoids; [6]) [log2 fold change] | Z.LYZ.NS [1, 7] | Z.LYZ.NS [1, 8] | Z.LYZ.NS [1, 9] | Dose.FC.CTG (ENR+CD organoids; dose 0.08 uM) [log2 fold change] | Dose.FC.CTG (ENR+CD organoids; dose 0.40 uM) [log2 fold change] | Dose.FC.CTG (ENR+CD organoids; dose 2.00 uM) [log2 fold change] | Dose.FC.CTG (ENR+CD organoids; dose 10.00 uM) [log2 fold change] | Dose.FC.LYZ.NS ([1]; primary screen, dose 0.08 uM) [log2 fold change] | Z.LYZ.NS (standard z score) ([1]; primary screen, dose 0.08 uM) | Dose.FC.LYZ.NS ([1]; primary screen, dose 0.40 uM) [log2 fold change] | Dose.FC.LYZ.NS ([1]; primary screen, dose 2.00 uM) [log2 fold change] | Dose.FC.LYZ.NS ([1]; primary screen, dose 10.00 uM) [log2 fold change] | Dose.FC.LYZ.S ([2]; dose 0.08 uM) [log2 fold change] | Dose.FC.LYZ.S ([2]; dose 0.40 uM) [log2 fold change] | Dose.FC.LYZ.S ([2]; dose 2.00 uM) [log2 fold change] | Dose.FC.LYZ.S ([2]; dose 10.00 uM) [log2 fold change] | also measured |
| --- | --- | --- | --- | --- | --- | --- | --- | --- | --- | --- | --- | --- | --- | --- | --- | --- | --- | --- | --- | --- | --- |
| CC(C)CC(=O)Nc1[nH]nc2c1CN(C(=O)C1CCN(C)CC1)C2(C)C [PHA-793887] | 0.113 | 0.132 | −0.144 | −0.856 | 0.275 | 0.085 | −1.187 | – | – | – | – | – | – | – | – | – | – | – | – | – | Z.LYZ.NS [1, 10]: −2.324; Dose.FC.LYZ.NS [1, 11]: 0.032 log2 fold change; Dose.FC.LYZ.NS [1, 12]: 0.010 log2 fold change; Dose.FC.LYZ.NS [1, 13]: −0.136 log2 fold change; Dose.FC.LYZ.NS [1, 14]: −0.267 log2 fold change; Dose.FC.LYZ.S [2, 3]: 0.046 log2 fold change; Dose.FC.LYZ.S [2, 4]: 0.100 log2 fold change; Dose.FC.LYZ.S [2, 5]: −0.081 log2 fold change; Dose.FC.LYZ.S [2, 6]: −0.292 log2 fold change |
| Clc1ccccc1CN1CCc2sccc2C1 [Ticlopidine HCl] | – | – | – | – | – | – | – | −0.118 | −0.041 | −0.234 | −0.005 | 0.043 | 0.373 | 0.010 | −0.002 | −0.035 | 0.052 | 0.072 | −0.022 | 0.076 | Z.LYZ.NS (standard z score) ([1]; primary screen, dose 0.40 uM): 0.084; Z.LYZ.NS (standard z score) ([1]; primary screen, dose 2.00 uM): −0.018; Z.LYZ.NS (standard z score) ([1]; primary screen, dose 10.00 uM): −0.308 |
| Cc1c(Cc2ccc3ccccc3n2)c2cc(F)ccc2n1CC(=O)O [OC000459] | 0.077 | −0.065 | 0.088 | 0.088 | 0.416 | 0.461 | 0.507 | – | – | – | – | – | – | – | – | – | – | – | – | – | Z.LYZ.NS [1, 10]: 0.287; Dose.FC.LYZ.NS [1, 11]: 0.048 log2 fold change; Dose.FC.LYZ.NS [1, 12]: 0.053 log2 fold change; Dose.FC.LYZ.NS [1, 13]: 0.058 log2 fold change; Dose.FC.LYZ.NS [1, 14]: 0.033 log2 fold change; Dose.FC.LYZ.S [2, 3]: 0.090 log2 fold change; Dose.FC.LYZ.S [2, 4]: 0.199 log2 fold change; Dose.FC.LYZ.S [2, 5]: 0.130 log2 fold change; Dose.FC.LYZ.S [2, 6]: 0.051 log2 fold change |
| C[C@@H](c1ncncc1F)[C@](O)(Cn1cncn1)c1ccc(F)cc1F [Voriconazole] | – | – | – | – | – | – | – | 0.258 | 0.306 | 0.285 | 0.328 | 0.252 | 2.192 | 0.193 | 0.067 | 0.018 | 0.180 | 0.120 | 0.097 | 0.048 | Z.LYZ.NS (standard z score) ([1]; primary screen, dose 0.40 uM): 1.682; Z.LYZ.NS (standard z score) ([1]; primary screen, dose 2.00 uM): 0.588; Z.LYZ.NS (standard z score) ([1]; primary screen, dose 10.00 uM): 0.153 |
| NC(=O)c1ccc(I)c([N+](=O)[O-])c1 [Iniparib (B5I-201)] | – | – | – | – | – | – | – | – | – | – | – | – | 0.364 | – | – | – | – | – | – | – | Dose.FC.CTG (log2 fold change) (ENR+CD organoids; dose 0.08 uM): 0.339; Z.CTG (standard z score) (ENR+CD organoids; dose 0.08 uM): 0.810; Dose.FC.LYZ.NS (log2 fold change) ([1]; primary screen, dose 0.08 uM): 0.042; Dose.FC.LYZ.S (log2 fold change) ([2]; dose 0.08 uM): 0.032 |
| C[C@H](CS)C(=O)N1CCC[C@H]1C(=O)O [Captopril] | – | – | – | – | – | – | – | −0.056 | 0.108 | 0.123 | 0.107 | 0.059 | – | 0.035 | 0.033 | 0.153 | 0.049 | 0.109 | 0.051 | 0.077 | Z.LYZ.NS ([1]; primary screen, standard z score, dose 0.08 uM): 0.511; Z.LYZ.NS ([1]; primary screen, standard z score, dose 0.40 uM): 0.307; Z.LYZ.NS ([1]; primary screen, standard z score, dose 2.00 uM): 0.285; Z.LYZ.NS ([1]; primary screen, standard z score, dose 10.00 uM): 1.330 |
